# Measured values as given in patent publication US20080009418A1, “Selective Inhibitors” (Alchemia LTD., priority 2004, published 2008).
# Legend:
# [1] = target: T1, Human κ-Opioid (KOP) (Homo sapiens, UniProt P41145); assay: Radioligand binding, human κ-opioid (KOP) membranes, filtration, [3H]-Diprenorphine; details: compound at 10 μM; for A2: inhibition of radioligand binding, human κ-opioid (KOP) / A2: inhibition of radioligand binding: [3H]-Diprenorphine
# T1 construct: purchased Perkin Elmer Biosignal
# T1 sequence (P41145 whole entry): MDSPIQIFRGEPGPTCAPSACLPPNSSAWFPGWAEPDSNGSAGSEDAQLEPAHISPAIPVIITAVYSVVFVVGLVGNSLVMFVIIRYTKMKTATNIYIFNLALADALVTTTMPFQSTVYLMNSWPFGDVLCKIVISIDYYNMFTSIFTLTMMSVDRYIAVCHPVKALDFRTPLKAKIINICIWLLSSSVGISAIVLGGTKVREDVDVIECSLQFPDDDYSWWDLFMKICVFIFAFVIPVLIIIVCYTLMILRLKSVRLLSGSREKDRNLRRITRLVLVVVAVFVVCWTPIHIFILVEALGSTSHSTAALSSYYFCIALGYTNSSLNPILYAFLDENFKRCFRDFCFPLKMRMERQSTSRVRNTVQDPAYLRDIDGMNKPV
# How it was run: (§1)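 Filtration binding on cloned human receptor membranes (1 Unit/well), [125I]-Substance P for NK1 and [3H]-Diprenorphine for KOP, 1 h at room temperature. Filters PEI-presoaked, washed with cold 50 mM Tris-HCl pH 7.4, counted by scintillation; percent inhibition calculated, reference ligand defining non-specific binding.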
# [2] = target: T2, Human neuropeptide Y (NPY-Y1) (Homo sapiens, UniProt P25929); assay: Radioligand binding, human neuropeptide Y NPY-Y1 membranes, FlashPlate, [125I]-PYY; details: compound at 10 μM; for A9: inhibition of radioligand binding, human neuropeptide Y (NPY-Y1) / A9: inhibition of radioligand binding: [125I]-PYY
# T2 construct: purchased Perkin Elmer Biosignal
# T2 sequence (P25929 1-384): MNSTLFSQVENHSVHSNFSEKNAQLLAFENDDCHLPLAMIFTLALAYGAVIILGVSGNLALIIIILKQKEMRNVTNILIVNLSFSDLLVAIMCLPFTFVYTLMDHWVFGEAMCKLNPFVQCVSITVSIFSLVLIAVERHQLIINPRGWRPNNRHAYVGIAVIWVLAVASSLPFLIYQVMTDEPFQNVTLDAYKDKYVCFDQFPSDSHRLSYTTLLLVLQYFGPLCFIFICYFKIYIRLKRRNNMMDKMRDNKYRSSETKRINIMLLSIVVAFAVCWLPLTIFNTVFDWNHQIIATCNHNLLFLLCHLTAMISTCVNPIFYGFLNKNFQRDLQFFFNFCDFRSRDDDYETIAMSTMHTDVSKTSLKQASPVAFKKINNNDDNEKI
# How it was run: (§2)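 Cloned human receptor membranes were coated onto FlashPlate wells and incubated with radioligand and compound (added from a 0.5 mM DMSO daughter plate) for 1 hour at room temperature in the dark. Scintillation counting gave percent inhibition, with DMSO defining total and reference ligand defining non-specific binding.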
# [3] = target: T3, Human Melanocortin (MC3) (Homo sapiens, UniProt P41968); assay: Radioligand binding, human melanocortin MC3 membranes, FlashPlate, [125I]-NDP-αMSH; details: compound at 10 μM; for A3: inhibition of radioligand binding, human melanocortin (MC3) / A3: inhibition of radioligand binding: [125I]-NDP-αMSH
# T3 construct: purchased Perkin Elmer Biosignal
# T3 sequence (P41968 whole entry): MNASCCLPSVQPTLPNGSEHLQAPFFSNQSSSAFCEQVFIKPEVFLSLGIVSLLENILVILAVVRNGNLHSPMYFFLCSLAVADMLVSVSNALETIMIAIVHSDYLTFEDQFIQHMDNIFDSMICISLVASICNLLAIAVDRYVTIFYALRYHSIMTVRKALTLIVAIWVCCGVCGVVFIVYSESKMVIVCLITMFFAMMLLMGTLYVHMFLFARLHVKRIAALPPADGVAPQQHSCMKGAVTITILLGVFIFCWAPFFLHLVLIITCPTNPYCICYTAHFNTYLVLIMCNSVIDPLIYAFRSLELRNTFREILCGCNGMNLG
# How it was run: as §2
# [4] = target: T4, Human μ-opioid (MOP) (Homo sapiens, UniProt P35372); assay: Radioligand binding, human μ-opioid (MOP) membranes, FlashPlate, [3H]-Naloxone; details: compound at 10 μM; for A7: inhibition of radioligand binding, human μ-opioid (MOP) / A7: inhibition of radioligand binding: [3H]-Naloxone; for A7: inhibition of radioligand binding, human μ-opioid (MOP): 10 µM
# T4 construct: purchased Perkin Elmer Biosignal
# T4 sequence (P35372 whole entry): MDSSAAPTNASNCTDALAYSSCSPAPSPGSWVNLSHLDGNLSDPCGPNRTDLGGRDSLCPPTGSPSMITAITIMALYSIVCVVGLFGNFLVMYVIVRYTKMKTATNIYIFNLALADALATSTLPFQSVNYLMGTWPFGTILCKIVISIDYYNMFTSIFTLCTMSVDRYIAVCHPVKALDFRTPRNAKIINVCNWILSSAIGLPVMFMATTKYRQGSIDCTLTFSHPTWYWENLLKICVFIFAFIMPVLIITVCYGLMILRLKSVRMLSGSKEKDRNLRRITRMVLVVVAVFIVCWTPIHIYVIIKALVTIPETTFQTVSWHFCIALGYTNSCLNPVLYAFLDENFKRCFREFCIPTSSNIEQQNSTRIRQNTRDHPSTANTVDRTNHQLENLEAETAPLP
# How it was run: as §2
# [5] = target: T5, Mouse urotensin (mUR2) (Mus musculus, UniProt Q8VIH9); assay: Radioligand binding, mouse urotensin mUR2 membranes, FlashPlate, [125I]-Urotensin II; details: compound at 10 μM; for A11: inhibition of radioligand binding, mouse urotensin (mUR2) / A11: inhibition of radioligand binding: [125I]-Urotensin II
# T5 construct: purchased Perkin Elmer Biosignal
# T5 sequence (Q8VIH9 1-385): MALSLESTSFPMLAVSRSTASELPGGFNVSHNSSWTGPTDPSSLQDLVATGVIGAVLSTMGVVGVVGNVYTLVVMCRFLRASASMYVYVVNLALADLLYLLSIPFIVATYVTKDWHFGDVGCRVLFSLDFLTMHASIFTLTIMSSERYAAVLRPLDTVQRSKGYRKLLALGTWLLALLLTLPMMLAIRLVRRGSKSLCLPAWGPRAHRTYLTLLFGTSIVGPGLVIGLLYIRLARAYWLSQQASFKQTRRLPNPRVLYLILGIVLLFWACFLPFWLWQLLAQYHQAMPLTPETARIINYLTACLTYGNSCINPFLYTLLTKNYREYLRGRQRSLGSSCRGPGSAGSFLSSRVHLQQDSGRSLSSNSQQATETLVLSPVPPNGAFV
# How it was run: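 Cloned mouse urotensin (mUR2) receptor membranes from Perkin Elmer Biosignal were immobilized in FlashPlate microplates using a proprietary coating. Each well got 19.5 μl buffer, then 0.5 μl of DMSO, reference ligand, or compound. Adding 5 μl of [125I]-Urotensin II, diluted to 5× final concentration in binding buffer, started binding. Plates were sealed with TopSeal-A and incubated 1 hour at room temperature in the dark. Wells were counted for 30 seconds each on a TopCount after a 60-second delay, and percentage inhibition was calculated.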
# [6] = target: T6, Human melanocortin (MC5) (Homo sapiens, UniProt P33032); assay: Radioligand binding, human melanocortin MC5 membranes, FlashPlate, [125I]-NDP-αMSH; details: compound at 10 μM; for A5: inhibition of radioligand binding, human melanocortin (MC5) / A5: inhibition of radioligand binding: [125I]-NDP-αMSH
# T6 construct: purchased Perkin Elmer Biosignal
# T6 sequence (P33032 whole entry): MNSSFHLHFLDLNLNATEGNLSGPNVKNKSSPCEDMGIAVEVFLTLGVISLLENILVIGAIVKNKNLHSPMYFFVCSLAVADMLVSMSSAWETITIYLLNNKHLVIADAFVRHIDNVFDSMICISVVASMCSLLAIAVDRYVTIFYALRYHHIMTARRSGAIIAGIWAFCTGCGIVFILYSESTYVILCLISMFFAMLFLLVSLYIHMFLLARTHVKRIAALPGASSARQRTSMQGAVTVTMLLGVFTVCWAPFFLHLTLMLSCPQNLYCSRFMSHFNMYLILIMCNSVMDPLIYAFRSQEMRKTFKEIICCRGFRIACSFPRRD
# How it was run: as §2
# [7] = target: T7, Human δ-opioid (DOP) (Homo sapiens, UniProt P41143); assay: Radioligand binding, human δ-opioid (DOP) membranes, FlashPlate, [3H]-Bremazocine; details: compound at 10 μM; for A1: inhibition of radioligand binding, human δ-opioid (DOP) / A1: inhibition of radioligand binding: [3H]-Bremazocine
# T7 construct: purchased Perkin Elmer Biosignal
# T7 sequence (P41143 whole entry): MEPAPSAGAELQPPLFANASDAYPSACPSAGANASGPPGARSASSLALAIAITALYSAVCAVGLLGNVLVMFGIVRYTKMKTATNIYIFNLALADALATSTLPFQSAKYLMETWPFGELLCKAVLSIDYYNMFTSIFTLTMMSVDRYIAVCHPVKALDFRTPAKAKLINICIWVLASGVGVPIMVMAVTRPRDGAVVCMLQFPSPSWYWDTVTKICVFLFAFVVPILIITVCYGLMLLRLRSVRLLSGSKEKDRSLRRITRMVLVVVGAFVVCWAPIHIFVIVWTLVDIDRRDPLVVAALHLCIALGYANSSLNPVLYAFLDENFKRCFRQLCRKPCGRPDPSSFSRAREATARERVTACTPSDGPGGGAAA
# How it was run: as §2
# [8] = target: T8, Human neurokinin (NK1) (Homo sapiens, UniProt P25103); assay: Radioligand binding, human neurokinin NK1 membranes, filtration, [125I]-Substance P; details: compound at 10 μM; for A8: inhibition of radioligand binding, human neurokinin (NK1) / A8: inhibition of radioligand binding: [125I]-Substance P
# T8 construct: purchased Perkin Elmer Biosignal
# T8 sequence (P25103 whole entry): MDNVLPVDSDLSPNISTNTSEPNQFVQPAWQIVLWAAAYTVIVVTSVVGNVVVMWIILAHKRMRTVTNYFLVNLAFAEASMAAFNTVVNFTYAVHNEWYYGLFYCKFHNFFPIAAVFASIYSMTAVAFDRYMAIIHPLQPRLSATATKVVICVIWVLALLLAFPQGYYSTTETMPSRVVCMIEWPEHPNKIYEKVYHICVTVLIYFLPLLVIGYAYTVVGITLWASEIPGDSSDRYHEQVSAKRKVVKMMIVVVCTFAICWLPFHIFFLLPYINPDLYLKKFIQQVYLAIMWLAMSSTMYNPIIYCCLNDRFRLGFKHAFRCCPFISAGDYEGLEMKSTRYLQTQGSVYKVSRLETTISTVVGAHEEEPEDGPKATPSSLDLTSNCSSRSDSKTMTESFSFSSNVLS
# How it was run: as §1
# [9] = target: T9, Human opioid (ORL1) (Homo sapiens, UniProt P41146); assay: Radioligand binding, human opioid ORL1 membranes, FlashPlate, [125I]-Nociceptin; details: compound at 10 μM; for A10: inhibition of radioligand binding, human opioid (ORL1) / A10: inhibition of radioligand binding: [125I]-Nociceptin
# T9 construct: purchased Perkin Elmer Biosignal
# T9 sequence (P41146 whole entry): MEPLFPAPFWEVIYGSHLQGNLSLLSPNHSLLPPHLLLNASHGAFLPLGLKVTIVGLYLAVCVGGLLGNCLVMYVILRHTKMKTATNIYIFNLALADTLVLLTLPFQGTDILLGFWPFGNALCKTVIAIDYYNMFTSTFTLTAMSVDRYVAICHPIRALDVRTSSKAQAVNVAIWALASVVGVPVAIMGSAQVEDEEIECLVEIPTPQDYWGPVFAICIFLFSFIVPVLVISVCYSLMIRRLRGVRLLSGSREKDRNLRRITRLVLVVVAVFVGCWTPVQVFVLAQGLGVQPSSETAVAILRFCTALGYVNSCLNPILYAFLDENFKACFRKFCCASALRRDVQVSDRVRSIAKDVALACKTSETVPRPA
# How it was run: as §2
# [10] = target: T10, Human Melanocortin (MC4) (Homo sapiens, UniProt P32245); assay: Radioligand binding, human melanocortin MC4 membranes, FlashPlate, [125I]-NDP-αMSH; details: compound at 10 μM; for A4: inhibition of radioligand binding, human melanocortin (MC4) / A4: inhibition of radioligand binding: [125I]-NDP-αMSH
# T10 construct: purchased Perkin Elmer Biosignal
# T10 sequence (P32245 whole entry): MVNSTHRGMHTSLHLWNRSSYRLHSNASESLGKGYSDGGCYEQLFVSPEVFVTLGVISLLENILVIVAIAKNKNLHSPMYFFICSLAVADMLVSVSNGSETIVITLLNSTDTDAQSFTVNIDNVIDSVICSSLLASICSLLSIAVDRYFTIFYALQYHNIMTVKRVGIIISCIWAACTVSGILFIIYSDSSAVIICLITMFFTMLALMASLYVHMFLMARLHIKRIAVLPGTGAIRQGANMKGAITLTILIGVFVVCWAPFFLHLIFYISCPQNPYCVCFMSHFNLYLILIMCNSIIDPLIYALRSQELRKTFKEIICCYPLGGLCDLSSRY
# How it was run: as §2
# [11] = target: T11, Human melanin-concentrating hormone (MCH1) (Homo sapiens, UniProt Q99705); assay: Radioligand binding, human melanin-concentrating hormone MCH1 membranes, FlashPlate, [125I]-S36057; details: compound at 10 μM; for A6: inhibition of radioligand binding, human melanin-concentrating hormone (MCH1): [125I]-S36057
# T11 construct: purchased Perkin Elmer Biosignal
# T11 sequence (Q99705 whole entry): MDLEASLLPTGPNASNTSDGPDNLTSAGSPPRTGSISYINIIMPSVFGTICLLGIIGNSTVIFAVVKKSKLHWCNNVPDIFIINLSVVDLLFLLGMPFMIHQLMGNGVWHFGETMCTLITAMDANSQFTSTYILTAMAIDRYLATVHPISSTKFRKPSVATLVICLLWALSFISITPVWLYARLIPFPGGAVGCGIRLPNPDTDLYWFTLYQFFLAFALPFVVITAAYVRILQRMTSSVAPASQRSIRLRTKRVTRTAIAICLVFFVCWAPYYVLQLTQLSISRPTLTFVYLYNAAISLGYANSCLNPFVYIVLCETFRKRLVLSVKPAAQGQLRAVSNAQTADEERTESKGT
# How it was run: as §2
smiles,measurement,setting,value
"COC[C@H]1OC(OCc2ccc(-c3ccccc3)cc2)[C@H](NC(=O)CCCNC(=N)N)[C@@H](OCc2ccc(-c3ccccc3)cc2)[C@@H]1O (single isomer, unassigned) [compound 335]","A2: inhibition of radioligand binding, human κ-opioid (KOP)",[1]; 10 µM,+ (“+” indicates greater than 50% inhibition at 10 μM)
same,"A9: inhibition of radioligand binding, human neuropeptide Y (NPY-Y1)",[2],− (“−” indicates less than 50% inhibition at 10 μM)
same,"A3: inhibition of radioligand binding, human melanocortin (MC3)",[3]; 10 µM,+ (“+” indicates greater than 50% inhibition at 10 μM)
same,"A7: inhibition of radioligand binding, human μ-opioid (MOP)",[4],+ (“+” indicates greater than 50% inhibition at 10 μM)
same,"A11: inhibition of radioligand binding, mouse urotensin (mUR2)",[5],− (“−” indicates less than 50% inhibition at 10 μM)
same,"A5: inhibition of radioligand binding, human melanocortin (MC5)",[6],+ (“+” indicates greater than 50% inhibition at 10 μM)
same,"A1: inhibition of radioligand binding, human δ-opioid (DOP)",[7]; 10 µM,+ (“+” indicates greater than 50% inhibition at 10 μM)
same,"A8: inhibition of radioligand binding, human neurokinin (NK1)",[8],+ (“+” indicates greater than 50% inhibition at 10 μM)
same,"A10: inhibition of radioligand binding, human opioid (ORL1)",[9],− (“−” indicates less than 50% inhibition at 10 μM)
same,"A4: inhibition of radioligand binding, human melanocortin (MC4)",[10],+ (“+” indicates greater than 50% inhibition at 10 μM)
same,"A6: inhibition of radioligand binding, human melanin-concentrating hormone (MCH1)",[11],+ (“+” indicates greater than 50% inhibition at 10 μM)
N=C(N)NCCC(=O)N[C@H]1C(OCc2ccc(Cl)cc2)O[C@H](COCc2ccc3ccccc3c2)[C@@H](O)[C@@H]1OCc1ccc(Cl)cc1 (stereo partly shown) [compound 522],"A2: inhibition of radioligand binding, human κ-opioid (KOP)",[1],+ (“+” indicates greater than 50% inhibition at 10 μM)
same,"A9: inhibition of radioligand binding, human neuropeptide Y (NPY-Y1)",[2]; 10 µM,+ (“+” indicates greater than 50% inhibition at 10 μM)
same,"A3: inhibition of radioligand binding, human melanocortin (MC3)",[3],+ (“+” indicates greater than 50% inhibition at 10 μM)
same,"A7: inhibition of radioligand binding, human μ-opioid (MOP)",[4],− (“−” indicates less than 50% inhibition at 10 μM)
same,"A11: inhibition of radioligand binding, mouse urotensin (mUR2)",[5],− (“−” indicates less than 50% inhibition at 10 μM)
same,"A5: inhibition of radioligand binding, human melanocortin (MC5)",[6],+ (“+” indicates greater than 50% inhibition at 10 μM)
same,"A1: inhibition of radioligand binding, human δ-opioid (DOP)",[7],− (“−” indicates less than 50% inhibition at 10 μM)
same,"A8: inhibition of radioligand binding, human neurokinin (NK1)",[8],+ (“+” indicates greater than 50% inhibition at 10 μM)
same,"A10: inhibition of radioligand binding, human opioid (ORL1)",[9],+ (“+” indicates greater than 50% inhibition at 10 μM)
same,"A4: inhibition of radioligand binding, human melanocortin (MC4)",[10],+ (“+” indicates greater than 50% inhibition at 10 μM)
same,"A6: inhibition of radioligand binding, human melanin-concentrating hormone (MCH1)",[11],+ (“+” indicates greater than 50% inhibition at 10 μM)
COCC1OC(OCc2ccc(Cl)cc2)C(NC(=O)CCN)C(OCc2ccc(Cl)cc2)C1O (stereo not shown) [compound 201],A2: inhibition of radioligand binding,[1]; filtration,− (“−” indicates less than 50% inhibition at 10 μM)
same,A9: inhibition of radioligand binding,[2]; FlashPlate,− (“−” indicates less than 50% inhibition at 10 μM)
same,A3: inhibition of radioligand binding,[3]; FlashPlate,− (“−” indicates less than 50% inhibition at 10 μM)
same,A7: inhibition of radioligand binding,[4]; FlashPlate,− (“−” indicates less than 50% inhibition at 10 μM)
same,A11: inhibition of radioligand binding,[5]; FlashPlate,− (“−” indicates less than 50% inhibition at 10 μM)
same,A5: inhibition of radioligand binding,[6]; FlashPlate,+ (“+” indicates greater than 50% inhibition at 10 μM)
same,A1: inhibition of radioligand binding,[7]; FlashPlate,− (“−” indicates less than 50% inhibition at 10 μM)
same,A8: inhibition of radioligand binding,[8]; filtration,+ (“+” indicates greater than 50% inhibition at 10 μM)
same,A10: inhibition of radioligand binding,[9]; FlashPlate,− (“−” indicates less than 50% inhibition at 10 μM)
same,A4: inhibition of radioligand binding,[10]; FlashPlate,− (“−” indicates less than 50% inhibition at 10 μM)
same,A6: inhibition of radioligand binding,"[11]; [125I]-S36057, FlashPlate",− (“−” indicates less than 50% inhibition at 10 μM)
COC[C@H]1OC(OCc2ccc(Cl)cc2)[C@H](NC(=O)CCCNC(=N)N)[C@@H](OCc2ccc(-c3ccccc3)cc2)[C@@H]1O (stereo partly shown) [compound 30],A2 radioligand binding inhibition,[1]; human κ-opioid (KOP) membranes,− (“−” indicates less than 50% inhibition at 10 μM)
same,A9 radioligand binding inhibition,[2]; human NPY-Y1 membranes,− (“−” indicates less than 50% inhibition at 10 μM)
same,A3 radioligand binding inhibition,[3]; human melanocortin MC3 membranes,+ (“+” indicates greater than 50% inhibition at 10 μM)
same,A7 radioligand binding inhibition,[4]; human μ-opioid (MOP) membranes,+ (“+” indicates greater than 50% inhibition at 10 μM)
same,A11 radioligand binding inhibition,[5]; mouse urotensin mUR2 membranes,− (“−” indicates less than 50% inhibition at 10 μM)
same,A5 radioligand binding inhibition,[6]; human melanocortin MC5 membranes,+ (“+” indicates greater than 50% inhibition at 10 μM)
same,A1 radioligand binding inhibition,[7]; human δ-opioid (DOP) membranes,− (“−” indicates less than 50% inhibition at 10 μM)
same,A8 radioligand binding inhibition,[8]; human neurokinin NK1 membranes,+ (“+” indicates greater than 50% inhibition at 10 μM)
same,A10 radioligand binding inhibition,[9]; human ORL1 membranes,− (“−” indicates less than 50% inhibition at 10 μM)
same,A4 radioligand binding inhibition,[10]; human melanocortin MC4 membranes,+ (“+” indicates greater than 50% inhibition at 10 μM)
same,A6 radioligand binding inhibition,[11]; human MCH1 membranes,+ (“+” indicates greater than 50% inhibition at 10 μM)
N=C(N)NCC(=O)NC1C(OCc2ccc(-c3ccccc3)cc2)OC(COCc2ccccc2)C(O)C1OCc1ccc2ccccc2c1 (stereo not shown) [compound 403],A2: inhibition of radioligand binding,[1]; human KOP membranes,− (“−” indicates less than 50% inhibition at 10 μM)
same,A9: inhibition of radioligand binding,[2]; human NPY-Y1 membranes,− (“−” indicates less than 50% inhibition at 10 μM)
same,A3: inhibition of radioligand binding,[3]; human MC3 membranes,+ (“+” indicates greater than 50% inhibition at 10 μM)
same,A7: inhibition of radioligand binding,[4]; human MOP membranes,− (“−” indicates less than 50% inhibition at 10 μM)
same,A11: inhibition of radioligand binding,[5]; mouse mUR2 membranes,− (“−” indicates less than 50% inhibition at 10 μM)
same,A5: inhibition of radioligand binding,[6]; human MC5 membranes,+ (“+” indicates greater than 50% inhibition at 10 μM)
same,A1: inhibition of radioligand binding,[7]; human DOP membranes,− (“−” indicates less than 50% inhibition at 10 μM)
same,A8: inhibition of radioligand binding,[8]; human NK1 membranes,+ (“+” indicates greater than 50% inhibition at 10 μM)
same,A10: inhibition of radioligand binding,[9]; human ORL1 membranes,+ (“+” indicates greater than 50% inhibition at 10 μM)
same,A4: inhibition of radioligand binding,[10]; human MC4 membranes,+ (“+” indicates greater than 50% inhibition at 10 μM)
same,A6: inhibition of radioligand binding,"[11]; [125I]-S36057, human MCH1 membranes",+ (“+” indicates greater than 50% inhibition at 10 μM)
